The test system of data set [1] is human red blood cells (hRBC). In words: Hemolysis. Type of data set: cell-based. The gist of the method:
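Percent lysis taken as OD540 of peptide-treated sample over OD540 of the water/0.1% Triton X-100 full-lysis control, with PBS giving 0%. Peptides at 100 μM exposed to PBS-washed human RBCs (20% v/v) for 1 hour at 37° C. before centrifugation and 20-fold dilution of supernatant.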

The next data set has as its target CXCR4 (Homo sapiens, UniProt P61073). In words: Ca2+-assay method 2 (Flexstation, SDF-1 induced calcium mobilization). The settings on record: method 2 (Ex. 54-160), mouse pre-B cell line 300-19 with human CXCR4, 10 nM SDF-1; read-out: IC50 (nM) Ca^2+ assay. Type of data set: cell-based. More on the design: expressed in transfected cells; host or cells: mouse pre-B cell line 300-19. (In general: Calcium flux is commonly read through the fluorescence of an indicator in the cells.)

A further data set in a line: in vitro. The settings on record: human.

Experimental findings from US8895695B2, “Template-fixed beta-hairpin peptidomimetics with CXCR4 antagonizing activity” (priority 2003, dated 2014) are described below.

Numbered stars: 1 amine (or outer) side, 2 acyl side, 3 side chain; on linkers, the order of the positions; unused ones are H or OH. Bridge positions count the residues as written; N and C are the ends. Square brackets hold non-standard residues; d marks the D form. Peptide text beside a SMILES is read from it. N(3-imidazol-1-ylpropyl)Gly = O=C(O)CNCCCn1ccnc1; X2 = CN1CCN(CCCN(CC(=O)[*:2])[*:1])CC1; 2Nal = N[C@@H](Cc1ccc2ccccc2c1)C(=O)O; Cit = NC(=O)NCCC[C@H](N)C(=O)O

One may read the IC50 as the concentration that gives 50% inhibition. As usually defined, the GI50 is the concentration at which growth is held to half of that of the control. Read a low GI50 as more potent growth inhibition.
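Throughout, for GI50: MTT reduction read as absorbance at 595 nm, blank-corrected and expressed as percent growth relative to the time-zero cell reading, triplicate wells per concentration.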

CXCR4, sequence (P61073 whole entry): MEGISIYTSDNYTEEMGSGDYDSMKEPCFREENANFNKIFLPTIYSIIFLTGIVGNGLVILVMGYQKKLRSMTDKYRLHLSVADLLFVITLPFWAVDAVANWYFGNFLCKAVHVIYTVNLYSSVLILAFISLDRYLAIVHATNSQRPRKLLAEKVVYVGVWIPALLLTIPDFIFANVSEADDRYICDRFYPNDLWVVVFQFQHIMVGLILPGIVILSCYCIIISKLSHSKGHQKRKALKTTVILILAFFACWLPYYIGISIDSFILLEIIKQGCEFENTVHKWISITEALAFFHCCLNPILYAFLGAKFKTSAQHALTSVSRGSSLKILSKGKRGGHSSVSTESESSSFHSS

In data set [1], `N=C(N)NCCC[C@@H]1NC(=O)[C@@H]2CSSC[C@H](NC(=O)[C@H](Cc3c[nH]c4ccccc34)NC(=O)[C@H](CCCNC(=N)N)NC(=O)[C@H](CCCNC(=N)N)NC(=O)[C@H]3CCCN3C(=O)CNC1=O)C(=O)N[C@@H](Cc1ccc(O)cc1)C(=O)N[C@@H](CCC(N)=O)C(=O)N[C@@H](CCCCN)C(=O)N1CCC[C@@H]1C(=O)N1CCC[C@H]1C(=O)N[C@@H](Cc1ccc(O)cc1)C(=O)N[C@@H](CCCNC(=N)N)C(=O)N[C@@H](CCCNC(N)=O)C(=O)N2` [Ex. 108] (cyclo(YR[Cit]CRG[dP]RRWCYQK[dP]P); disulfide 4-11) gave a Hemolysis at 100 μM of 0%. Also, the IC50 at CXCR4 was 4.6 nM. Growth in “in vitro” was halved (GI50 at 48 h) at 70000 nM.

For `N=C(N)NCCC[C@@H]1NC(=O)[C@@H]2CSSC[C@H](NC(=O)[C@H](Cc3c[nH]c4ccccc34)NC(=O)[C@H](CCCNC(=N)N)NC(=O)[C@H](CCCNC(=N)N)NC(=O)[C@H]3CCCN3C(=O)CNC1=O)C(=O)N[C@@H](Cc1ccc(O)cc1)C(=O)N[C@@H](CCCNC(N)=O)C(=O)N[C@@H](CCCCN)C(=O)N1CCC[C@@H]1C(=O)N1CCC[C@H]1C(=O)N[C@@H](Cc1ccc(O)cc1)C(=O)N[C@@H](Cc1c[nH]cn1)C(=O)N[C@@H](CCCNC(N)=O)C(=O)N2` [Ex. 105] (cyclo(YH[Cit]CRG[dP]RRWCY[Cit]K[dP]P); disulfide 4-11), the Hemolysis at 100 μM in data set [1] was determined as 0%. For the same molecule, at CXCR4, the IC50 was found to be 0.62 nM. The same molecule yielded a GI50 at 48 h in “in vitro” of 49000 nM.

With `N=C(N)NCCC[C@@H]1NC(=O)[C@@H]2CSSC[C@H](NC(=O)[C@H](Cc3ccc(O)cc3)NC(=O)[C@H](CCCNC(=N)N)NC(=O)[C@H](CCCNC(=N)N)NC(=O)[C@H]3CCCN3C(=O)CNC1=O)C(=O)N[C@@H](Cc1ccc(O)cc1)C(=O)N[C@@H](CCCNC(N)=O)C(=O)N[C@@H](CCCCN)C(=O)N1CCC[C@@H]1C(=O)N1CCC[C@H]1C(=O)N[C@@H](Cc1ccc(O)cc1)C(=O)N[C@@H](CCCNC(=N)N)C(=O)N[C@@H](CCCNC(N)=O)C(=O)N2` [Ex. 112] (cyclo(YR[Cit]CRG[dP]RRYCY[Cit]K[dP]P); disulfide 4-11), in data set [1], the Hemolysis at 100 μM amounted to 0%. Besides, on CXCR4, the IC50 was 7.8 nM. Moreover, in “in vitro”, it took 76000 nM to inhibit growth by half (GI50 at 48 h).

The molecule `CSCC[C@@H]1NC(=O)[C@H](Cc2ccc(O)cc2)NC(=O)[C@@H]2CSSC[C@H](NC(=O)[C@H](CCCNC(N)=O)NC(=O)[C@H](CCCNC(=N)N)NC(=O)[C@H](Cc3ccc(O)cc3)NC(=O)[C@@H]3CCCN3C(=O)[C@H]3CCCN3C(=O)[C@H](CCCCN)NC1=O)C(=O)N[C@@H](CCCNC(=N)N)C(=O)NCC(=O)N1CCC[C@@H]1C(=O)N[C@@H](CCCNC(=N)N)C(=O)N[C@@H](CCCNC(=N)N)C(=O)N[C@@H](Cc1ccc3ccccc3c1)C(=O)N2` [Ex. 83] (cyclo(YR[Cit]CRG[dP]RR[2Nal]CYMK[dP]P); disulfide 4-11) came in with a Hemolysis at 100 μM in data set [1] of 0.1%. Moreover, the IC50 at CXCR4 stood at 3.7 nM. In addition, the 50% growth inhibitory concentration (GI50) at 48 h in “in vitro” came out at 48000 nM.

`N=C(N)NCCC[C@@H]1NC(=O)[C@@H]2CSSC[C@H](NC(=O)[C@H](Cc3ccc4ccccc4c3)NC(=O)[C@H](CCCNC(=N)N)NC(=O)[C@H](CCCNC(=N)N)NC(=O)[C@H]3CCCN3C(=O)CNC1=O)C(=O)N[C@@H](Cc1ccc(O)cc1)C(=O)N[C@@H](CCC(N)=O)C(=O)N[C@@H](CCCCN)C(=O)N1CCC[C@@H]1C(=O)N1CCC[C@H]1C(=O)N[C@@H](Cc1ccc(O)cc1)C(=O)N[C@@H](CCCNC(=N)N)C(=O)N[C@@H](Cc1ccc(O)cc1)C(=O)N2` [Ex. 72] (cyclo(YRYCRG[dP]RR[2Nal]CYQK[dP]P); disulfide 4-11) returned a Hemolysis at 100 μM in data set [1] of 0.5%. In addition, at CXCR4, the IC50 was found to be 3.9 nM. The GI50 at 48 h in the data set “in vitro” was 36000 nM.

In data set [1], `N=C(N)NCCC[C@@H]1NC(=O)[C@@H]2CSSC[C@H](NC(=O)[C@H](Cc3ccc4ccccc4c3)NC(=O)[C@H](CCCNC(=N)N)NC(=O)[C@H](CCCNC(=N)N)NC(=O)[C@H]3CCCN3C(=O)CNC1=O)C(=O)N[C@@H](Cc1ccc(O)cc1)C(=O)N[C@@H](CCC(N)=O)C(=O)N[C@@H](CCCCN)C(=O)N1CCC[C@@H]1C(=O)N1CCC[C@H]1C(=O)N[C@@H](Cc1c[nH]c3ccccc13)C(=O)N[C@@H](CCCNC(=N)N)C(=O)N[C@@H](CCCNC(N)=O)C(=O)N2` [Ex. 66] (cyclo(WR[Cit]CRG[dP]RR[2Nal]CYQK[dP]P); disulfide 4-11) gave a Hemolysis at 100 μM of 0%. In addition, the IC50 on CXCR4 amounted to 3.8 nM. Further, the GI50 at 48 h in “in vitro” came out at 46000 nM.

In data set [1], `N=C(N)NCCC[C@@H]1NC(=O)[C@@H]2CSSC[C@H](NC(=O)[C@H](Cc3ccc4ccccc4c3)NC(=O)[C@H](CCCNC(=N)N)NC(=O)[C@H](CCCNC(=N)N)NC(=O)[C@H]3CCCN3C(=O)CNC1=O)C(=O)N[C@@H](Cc1ccc(O)cc1)C(=O)N[C@@H](CCC(N)=O)C(=O)N[C@@H](CCCCN)C(=O)N1CCC[C@@H]1C(=O)N1CCC[C@H]1C(=O)N[C@@H](CCC(N)=O)C(=O)N[C@@H](CCCNC(=N)N)C(=O)N[C@@H](CCCNC(N)=O)C(=O)N2` [Ex. 62] (cyclo(QR[Cit]CRG[dP]RR[2Nal]CYQK[dP]P); disulfide 4-11) displayed a Hemolysis at 100 μM of 0.1%. Further, the IC50 on CXCR4 came to 1.8 nM. The GI50 at 48 h in “in vitro” was found to be 65000 nM.

`N=C(N)NCCC[C@@H]1NC(=O)CN(CCCn2ccnc2)C(=O)[C@H]2CCCN2C(=O)CNC(=O)[C@H](CCCNC(=N)N)NC(=O)[C@@H]2CSSC[C@H](NC(=O)[C@H](Cc3ccc4ccccc4c3)NC1=O)C(=O)N[C@@H](Cc1ccc(O)cc1)C(=O)N[C@@H](CCCNC(N)=O)C(=O)N[C@@H](CCCCN)C(=O)N1CCC[C@@H]1C(=O)N1CCC[C@H]1C(=O)N[C@@H](Cc1ccc(O)cc1)C(=O)N[C@@H](CCCNC(=N)N)C(=O)N[C@@H](CCCNC(N)=O)C(=O)N2` [Ex. 125] (cyclo(YR[Cit]CRG[dP][N(3-imidazol-1-ylpropyl)Gly]R[2Nal]CY[Cit]K[dP]P); disulfide 4-11) came in with a Hemolysis at 100 μM in data set [1] of 0%. Moreover, at CXCR4, the IC50 is 330 nM. The GI50 at 48 h in “in vitro” was > 100000 nM.

`CN1CCN(CCCN2CC(=O)N[C@@H](Cc3ccc4ccccc4c3)C(=O)N[C@H]3CSSC[C@H](NC(=O)[C@H](CCCNC(N)=O)NC(=O)[C@H](CCCNC(=N)N)NC(=O)[C@H](Cc4ccc(O)cc4)NC(=O)[C@@H]4CCCN4C(=O)[C@H]4CCCN4C(=O)[C@H](CCCCN)NC(=O)[C@H](CCCNC(N)=O)NC(=O)[C@H](Cc4ccc(O)cc4)NC3=O)C(=O)N[C@@H](CCCNC(=N)N)C(=O)NCC(=O)N3CCC[C@@H]3C(=O)N[C@@H](CCCNC(=N)N)C2=O)CC1` [Ex. 126] (cyclo(YR[Cit]CRG[dP]R[X2][2Nal]CY[Cit]K[dP]P); disulfide 4-11) came in with a Hemolysis at 100 μM in data set [1] of 0%. The 50% inhibitory concentration (IC50) at CXCR4 was 19.5 nM. Also, in “in vitro”, the concentration for 50% growth inhibition (GI50) at 48 h came out at 85000 nM.

In data set [1], `N=C(N)NCCC[C@@H]1NC(=O)[C@@H]2CSSC[C@H](NC(=O)[C@H](Cc3ccc(O)cc3)NC(=O)[C@H](CCCNC(=N)N)NC(=O)[C@H](CCCNC(=N)N)NC(=O)[C@H]3CCCN3C(=O)CNC1=O)C(=O)N[C@@H](Cc1ccc(O)cc1)C(=O)N[C@@H](CCC(N)=O)C(=O)N[C@@H](CCCCN)C(=O)N1CCC[C@@H]1C(=O)N1CCC[C@H]1C(=O)N[C@@H](Cc1ccc(O)cc1)C(=O)N[C@@H](CCCNC(=N)N)C(=O)N[C@@H](Cc1ccc(O)cc1)C(=O)N2` [Ex. 148] (cyclo(YRYCRG[dP]RRYCYQK[dP]P); disulfide 4-11) yielded a Hemolysis at 100 μM of 71%. Besides, the half-inhibitory concentration (IC50) on CXCR4 stood at 0.65 nM. Further, in “in vitro”, the GI50 at 48 h turned out to be 46000 nM.
